From patent US20080317875A1, “Inhibitor of PI3 kinase-dependent inflammatory cytokine synthesis and method for inhibiting the same” (priority 2006, published 2008)

Experiments:
[1] = test system: C. rodentium; conditions: B10.D2 mice, vs control group
Procedure: 200 μl of the culture (a volume equivalent to 2-3×10^8 colony-forming unit (cfu) per mouse) was infected into the mice by oral administration through the diet. Mice were sacrificed after continued housing for a designated period of time. A segment of the distal colon was excised at 4.5 cm from the rectum and the fecal pellets were removed by washing with PBS. After weight measurement and macroscopic observation of the tissue, homogenization was performed with a Potter Elvehjem homogenizer (digital homogenizer, As One). The homogenate was serially diluted with cold PBS and then seeded on MacConkey's agar plates (Difco Laboratories). The number of the colonies produced on the plate was counted to determine CFU per mouse to be used as an indicator of the degree of infection. […]
Wild-type B10.D2 mice were orally infected with C. rodentium by the method as described in Example 3. Three days after infection, the mice were divided into three groups, and one group was sacrificed and the weight of the colon cleared of lumps of feces was measured. […] Each group was housed for three more days, and six days after the infection, the mice in the experimental and control groups were sacrificed and the weight of the colon was measured. […]

[2] = test system: IFN-γ; conditions: MLN cells from mice day 6 after infection, 30 mM LiCO3 in drinking water, vs control group; FIG. 8E
Procedure: The mesenteric lymph node (MLN) cells were isolated from the mesentery of the mice on day 12 of infection using a syringe needle. After cells were gently suspended, tissue fragments were removed by passing through a 100-μm mesh. Cells were then transferred to RPMI 1640 medium and culture was started at 37° C. Subsequently, the MLN cells were stimulated with bacterial lysate at 37° C. for 72 hr.
Meanwhile, MLN cells were isolated by the method as described in Example 3 from the mice 6 days after the oral infection. The isolated MLN cells were stimulated in vitro with C. rodentium lysate and IFN-γ produced was quantified by ELISA.

[3] = test system: bone marrow-derived dendritic cells (BMDCs); assay: IL-12p70 production in LPS-stimulated BMDCs after pretreatment with GSK3β inhibitor (ELISA); conditions: BMDCs pretreated 1 hr with 10 nM SB216763 or 5 mM LiCl, then 1 μg/ml LPS for 24 hr; FIG. 7B
Procedure: Bone marrow-derived dendritic cells (BMDCs) were isolated from wild-type mice by the method as described in Example 2. […] Meanwhile, after pretreatment for 1 hr with 10 nM GSK3β inhibitor SB216763 (Sigma) or 5 mM LiCl, the isolated BMDCs were stimulated with a 1 μg/ml LPS solution for 24 hr. The content of IL-12 in the culture supernatants after the stimulation was quantified using the ELISA kit specific to anti-mouse IL-12p70.

O=C([O-])[O-].[Li+].[Li+] [LiCO3, lithium carbonate]
symptom of bacterial infection in the colon (colon weight, macroscopic and histopathological observation) ([1]; 30 mM LiCO3 in drinking water from day 3 to day 6 after infection, FIG. 8A-C): relieved | number of infecting bacteria in the colon (cfu) ([1]; 30 mM LiCO3 in drinking water, day 6 after infection, p<0.05, FIG. 8D): significantly decreased | expression level of IFN-γ in the lymph node cells [2]: decreased

[Cl-].[Li+] [LiCl, lithium chloride]
production of IL-12 (IL-12p70 in culture supernatant) [3]: decrease

Cn1cc(C2=C(c3ccc(Cl)cc3Cl)C(=O)NC2=O)c2ccccc21 [SB216763, reference compound]
production of IL-12 (IL-12p70 in culture supernatant) [3]: decrease
